# In the supplement of paper PMC10307832:
# Compound: CCN(CCO)CCCC(C)Nc1ccnc2cc(Cl)ccc12 [Hydroxychloroquine] + CS(=O)(=O)N1CCN(Cc2cc3nc(-c4cccc5[nH]ncc45)nc(N4CCOCC4)c3s2)CC1 [Pictilisib] (partner 1 µM)
# Assay: relative viability (nuclei count vs DMSO), 5 days (fraction); higher = more cells survive
# Outline: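 Lung cancer cell lines in 1536-well plates were dosed by pin tool the day after seeding, either with one drug alone or with a fixed anchor-drug dose plus five library-drug doses (not always all listed) in √10 steps. After 5 days, cells were fixed and their nuclei stained in one step (final 0.05% Triton X-100, 1% formaldehyde, 1 ug/ml Hoechst), then counted on 4× images. Relative viability is the nuclei count in treated wells divided by that in vehicle wells. Values are medians of duplicate plates.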
Cell Line,relative viability (first compound 0.5 µM),relative viability (first compound 1.581 µM),relative viability (first compound 5 µM),relative viability (first compound 15.81 µM),relative viability (first compound 50 µM)
201T,0.687,0.555,0.641,0.631,0.698
A549,0.622,0.525,0.434,0.529,0.565
A-427,0.713,0.624,0.674,0.585,0.628
ABC-1,0.75,0.761,0.783,0.815,0.737
BEN,0.615,0.465,0.49,0.6,0.676
CAL-12T,0.793,,0.382,0.35,0.598
COR-L23,0.585,0.84,0.875,0.899,0.968
COR-L 105,0.392,0.435,0.425,0.325,0.338
Calu-6,0.997,0.785,0.949,0.962,0.986
ChaGo-K-1,0.873,0.506,0.383,0.662,0.64
EBC-1,0.367,0.307,0.374,0.354,0.295
EKVX,0.458,0.383,0.476,0.427,0.476
EMC-BAC-2,0.593,0.417,0.547,0.55,0.612
EPLC-272H,0.282,0.246,0.333,0.297,0.349
H3255,0.513,0.517,0.462,0.474,0.507
HARA,0.316,0.383,0.508,0.407,0.362
HCC-15,0.773,0.668,0.749,0.744,0.659
HCC-44,0.475,0.61,0.588,0.552,0.661
HCC-78,0.21,0.176,0.221,0.224,0.165

Cell Line,relative viability (first compound 0.5 µM),relative viability (first compound 1.581 µM),relative viability (first compound 5 µM),relative viability (first compound 15.81 µM),relative viability (first compound 50 µM)
HCC-366,0.202,0.13,0.198,0.18,0.148
HCC-827,1.01,0.899,0.755,0.98,1.06
HOP-62,0.682,0.643,0.722,0.854,0.515
IA-LM,0.296,0.357,0.361,0.433,0.338
LC-2-ad,0.321,0.395,0.463,0.546,0.436
LCLC-97TM1,0.265,0.183,0.277,0.182,0.131
LCLC-103H,0.666,0.612,0.567,0.542,0.67
LK-2,0.607,,0.58,0.62,0.558
LOU-NH91,0.531,0.488,0.567,0.509,0.488
LU99A,0.367,0.288,0.337,0.28,0.362
LXF-289,0.765,0.819,0.797,0.736,0.769
NCI-H23,0.552,0.409,0.384,0.385,0.449
NCI-H322M,0.533,0.438,0.475,0.515,0.524
NCI-H358,0.32,0.274,0.281,0.327,0.328
NCI-H441,0.488,0.532,0.535,0.38,0.428
NCI-H460,0.37,0.266,0.366,0.406,0.352
NCI-H520,0.338,0.255,0.29,0.354,0.387
NCI-H596,0.386,0.406,0.32,0.367,0.399
NCI-H647,0.514,0.323,0.335,0.357,0.476
